This note sets out measurements from ChEMBL document CHEMBL1136655, “Synthesis of imidazopyridines and purines as potent inhibitors of leukotriene A4 hydrolase” (Bioorg Med Chem Lett, 2003).

Bounds are passed on as bounds.

For one assay, the species on record is Homo sapiens. As to the kind of experiment: Inhibition of LTB4 production from whole human blood. Format: functional.
Assay [1] concerns the target T1, Leukotriene A-4 hydrolase (Homo sapiens, UniProt P09960).
T1 sequence (P09960 whole entry): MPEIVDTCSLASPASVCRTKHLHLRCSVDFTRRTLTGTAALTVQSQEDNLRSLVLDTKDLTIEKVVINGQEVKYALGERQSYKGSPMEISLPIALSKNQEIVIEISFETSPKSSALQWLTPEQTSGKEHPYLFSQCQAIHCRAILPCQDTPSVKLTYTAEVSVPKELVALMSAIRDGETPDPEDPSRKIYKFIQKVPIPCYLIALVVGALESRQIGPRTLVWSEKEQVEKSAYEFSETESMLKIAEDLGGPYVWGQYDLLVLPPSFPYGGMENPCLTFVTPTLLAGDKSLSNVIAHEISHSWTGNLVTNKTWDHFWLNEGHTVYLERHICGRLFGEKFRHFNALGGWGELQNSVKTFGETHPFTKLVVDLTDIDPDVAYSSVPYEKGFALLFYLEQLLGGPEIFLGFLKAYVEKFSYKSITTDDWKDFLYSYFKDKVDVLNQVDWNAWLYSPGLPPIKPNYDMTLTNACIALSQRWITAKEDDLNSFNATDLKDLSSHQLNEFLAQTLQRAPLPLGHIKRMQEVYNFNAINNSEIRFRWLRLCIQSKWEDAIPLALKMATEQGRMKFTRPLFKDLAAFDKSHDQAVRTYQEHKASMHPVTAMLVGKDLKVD
As to the kind of experiment: In vitro inhibition of recombinant human leukotriene A4 hydrolase.

The test system of the next assay is Mus musculus. As to the kind of experiment: Ex vivo inhibition of LTB4 production in mouse whole blood following 10 mg/kg p.o. administration. Format: functional. Conditions: route oral.

As usually defined, the IC50 is the concentration at which inhibition is half-maximal. For orientation: inhibition in vivo means the relative decrease from the control value, in per cent. The low end stands for a weak effect, the high end for a strong effect. Regarding `N#Cc1nccc2c1ncn2CCOc1ccc(Cc2ccccc2)cc1`, the IC50 in the assay listed under Homo sapiens turned out to be 100 nM; in assay [1] it was 31 nM. The inhibition in vivo at 10 mg/kg in the assay on Mus musculus was determined as 84%.

As to `c1ccc(Cc2ccc(OCCn3cccc4ncnc3-4)cc2)cc1`, in the assay filed under Homo sapiens, the IC50 stood at 690 nM.

On to `c1ccc(Cc2ccc(OCCn3cnc4cccnc43)cc2)cc1`, for which the IC50 in the assay filed under Homo sapiens was 9150 nM; in assay [1], more than 3000 nM.

Turning to `c1ccc(Cc2ccc(OCCn3cnc4ccccc43)cc2)cc1`, in the assay listed under Homo sapiens, the midpoint of inhibition, the IC50, lay at 13200 nM. For the same compound, the inhibition in vivo at 10 mg/kg with Mus musculus came to 46%.

`N#Cc1ccc2c(ncn2CCOc2ccc(Cc3ccccc3)cc2)n1`: the half-inhibitory concentration (IC50) worked out at 150 nM in the assay listed under Homo sapiens and 0.8 nM in assay [1]. In the assay with Mus musculus, at 10 mg/kg the inhibition in vivo was 21%.

In the assay filed under Homo sapiens, `c1ccc(Cc2ccc(OCCn3cnc4ncccc43)cc2)cc1` yielded an IC50 of 330 nM. The inhibition in vivo at 10 mg/kg in the assay with Mus musculus was determined as 18%.

With `Oc1ccc2ncn(CCOc3ccc(Cc4ccccc4)cc3)c2n1`, the values for the IC50 (in the assay listed under Homo sapiens; in assay [1]) were 940 nM and 500 nM, respectively. The compound further had an inhibition in vivo at 10 mg/kg in the assay with Mus musculus of 72%.

Take `c1ccc(Cc2ccc(OCCn3cnc4cnccc43)cc2)cc1`: the half-inhibitory concentration (IC50) in the assay listed under Homo sapiens was 330 nM. Moreover, the inhibition in vivo at 10 mg/kg in the assay with Mus musculus came out at 64%.
